Test results published in patent US20220213126A1, “SMALL MOLECULE AUTOPHAGY INDUCERS FOR THE TREATMENT OF CANCER AND NEURODEGENERATIVE DISEASES” (John Wayne Cancer Institute, priority 2019, published 2022).
≈ marks a conversion by molar mass, not a printed value. Where “and” joins values, the source holds several entries; their conditions need not be identical. Identical values can stand only once.

Tests used:
CYP2C19 = biological target: T1, CYP2C19 (Homo sapiens, UniProt P33261); assay: CYP inhibition in pooled human liver microsomes; format: in vitro ADME
T1 construct: from tissue; host or cells: pooled human liver microsomes

GL261 = assay: GBM cell viability, Alamar blue, 72 hours; format: cell-based; conditions: Mus musculus, GL261, established glioma cell line
Protocol: (§1) The effect of VMY-BC-1 was tested on a panel of GBM cell lines. […] In this study 100 μM was the highest drug concentration used, with 3-fold dilution for a 10 dose response curve.

U87 = assay: GBM cell viability, Alamar blue, 72 hours; format: cell-based; conditions: Homo sapiens, U-87 MG, U87, established glioma cell line
Protocol: as §1

GBM4 = assay: GBM cell viability, Alamar blue, 72 hours; format: cell-based; conditions: GBM4, patient-derived cell line
Protocol: as §1

GBM8 = assay: GBM cell viability, Alamar blue, 72 hours; format: cell-based; conditions: GBM8, patient-derived cell line
Protocol: as §1

U251 = assay: GBM cell viability, Alamar blue, 72 hours; format: cell-based; conditions: Homo sapiens, U-251, U251, established glioma cell line
Protocol: as §1

wild-type C. elegans = assay: C. elegans lifespan; format: in vivo
Protocol: Synchronized populations of wild-type L1 C. elegans hatched overnight were transferred to agar plates followed by VMY-BC-1 was added freshly from a 5 mM stock to the NGM media. Water was used as control. The L4 population of worms was randomly split to control or treatment groups in a density of about 20-30 worms per 6 cm plate dish.
The first day of adulthood was considered day one. In all the experiments with late-onset administration of VMY-BC-1, synchronized L4 animals were moved to the media supplemented with 5′-fluorodeoxyuridine (FUDR, Cayman chemicals) at a final concentration of 1 μM for 2 days to prevent reproduction, then were moved to FUDR-free NGM plates until the final treatments at day 10. The animals that crawled off the plate, ruptured, or died from internal hatching were censored. Worms were transferred to fresh plates every day after reaching adulthood, and every 2 days after reaching 10 days of age. Prodding test was used to count the number of dead worms. Survival curve was plotted using Prism 7 and the significance of the curves calculated by Log-rank (Mantel-Cox) test.
Synchronized populations of polyQ-expressing C. elegans were grown for 72 hours on media containing 1 μM VMY-BC-1. PolyQ aggegrative vacuoles were detected using confocal microscopy. PolyQ aggregations were decreased compared to vehicle (DMSO) (FIG. 21A). […]

[1] = Normal cell viability, Alamar blue, 72 hours; format: cell-based; conditions: MRCS, normal cell line
Protocol: as §1

NHA = assay: Normal cell viability, Alamar blue, 72 hours; format: cell-based; conditions: normal cell line
Protocol: as §1

Thermodynamic solubility = format: physicochemical; conditions: pH 7.4, aqueous buffer, thermodynamic from solid
Protocol: Moreover, PK studies of RSV in humans conclude that even high concentration of RSV might be insufficient to achieve in vivo concentrations required for the systemic prevention of cancer. Therefore, in vitro ADME assays were carried out to assess VMY-BC-1 and to identify properties for further optimization.

[2] = system: polyQ-expressing C. elegans; assay: PolyQ aggregation in C. elegans Huntington's disease model; format: in vivo; conditions: 1 μM, 72 hours
Protocol: Synchronized populations of polyQ-expressing C. elegans were grown for 72 hours on media containing 1 μM VMY-BC-1. PolyQ aggegrative vacuoles were detected using confocal microscopy. PolyQ aggregations were decreased compared to vehicle (DMSO) (FIG. 21A). Synchronized populations of wild-type worms were grown on media containing VMY-BC-1 from 0.1 to 10 μM.

[3] = Pharmacokinetics of BC-4 and BC-5 in mouse plasma and brain; format: in vivo; conditions: Balb/c mice, single oral dose 5 mg/kg; for Cmax: read-out: Cmax; for Tmax: read-out: Tmax (converted); for half-life: read-out: T½
Protocol: Pharmacokinetics of BC-4 and BC-5 were compared to BC-1. Pharmacokinetics were assessed in Balb/c mice administered a single oral dose of 5 mg/kg of the indicated compound (Tables 11 and 12).

CYP2D6 = biological target: T2, CYP2D6 (Homo sapiens, UniProt P10635); assay: CYP inhibition in pooled human liver microsomes; format: in vitro ADME
T2 construct: from tissue; host or cells: pooled human liver microsomes

MDA-MB-231 TNBC cells = assay: Growth of MDA-MB-231 TNBC cells; format: cell-based; conditions: 1%, 5% or 10% serum
Protocol: FIGS. 2A and 2B are graphs showing the effect of VMY-BC-1 on TNBC cells. […] The percentage of cells crossing the chamber is presented as the mean±SEM. *P<0.05.
Effect of VMY-BC-1 on Triple Negative Breast Cancer Cell Lines A trans-stilbene boronic acid analog, VMY-BC-1, was tested against a TNBC cell line.

[4] = Pharmacokinetics of BC-2 and BC-3 in mouse plasma and brain; format: in vivo, mice; conditions: mouse, in vivo, po, 5 mg/kg
Protocol: Pharmacokinetics were assessed in mice administered a single oral dose of 5 mg/kg of the indicated compound (Tables 9 and 10).

MDA-MB-231 = assay: TMT quantitative proteomics with Ingenuity Pathway Analysis; format: cell-based; conditions: 10 μM
Protocol: A global quantitative proteomics approach using multiplexed tandem mass tagged (TMT) isotope labeling technology and shotgun mass spectrometry (Hung et al., Anal. Chem. 84:161-170, 2012) (FIG. 3) was used to quantitate approximately 5,400 proteins. MDA-MB-231 cells were treated with vehicle control (DMSO) or 10 μM VMY-BC-1 for 4 time points. Equal amounts of protein from cell lysates were trypsin digested (Step 1) and labelled with TMT 10-plex reagent (Step 2).

[5] = mouse, brain, read-out: Brain level, Mean (4) ± SE
[6] = mouse, plasma, read-out: Plasma level, Mean (4) ± SE

T2 sequence (P10635 whole entry): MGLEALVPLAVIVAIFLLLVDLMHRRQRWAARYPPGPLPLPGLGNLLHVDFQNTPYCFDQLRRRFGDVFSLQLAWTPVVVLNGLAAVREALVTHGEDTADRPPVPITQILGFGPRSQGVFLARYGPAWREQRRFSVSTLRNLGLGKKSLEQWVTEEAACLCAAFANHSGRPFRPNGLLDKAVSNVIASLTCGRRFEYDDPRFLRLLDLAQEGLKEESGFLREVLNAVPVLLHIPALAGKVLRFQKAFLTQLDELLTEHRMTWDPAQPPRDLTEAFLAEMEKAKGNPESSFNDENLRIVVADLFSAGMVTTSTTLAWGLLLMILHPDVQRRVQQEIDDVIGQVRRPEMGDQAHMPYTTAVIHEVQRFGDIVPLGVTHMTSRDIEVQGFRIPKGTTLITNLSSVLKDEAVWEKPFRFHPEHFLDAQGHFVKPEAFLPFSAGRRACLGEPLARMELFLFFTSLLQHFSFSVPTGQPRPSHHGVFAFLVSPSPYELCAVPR
T1 sequence (P33261 whole entry): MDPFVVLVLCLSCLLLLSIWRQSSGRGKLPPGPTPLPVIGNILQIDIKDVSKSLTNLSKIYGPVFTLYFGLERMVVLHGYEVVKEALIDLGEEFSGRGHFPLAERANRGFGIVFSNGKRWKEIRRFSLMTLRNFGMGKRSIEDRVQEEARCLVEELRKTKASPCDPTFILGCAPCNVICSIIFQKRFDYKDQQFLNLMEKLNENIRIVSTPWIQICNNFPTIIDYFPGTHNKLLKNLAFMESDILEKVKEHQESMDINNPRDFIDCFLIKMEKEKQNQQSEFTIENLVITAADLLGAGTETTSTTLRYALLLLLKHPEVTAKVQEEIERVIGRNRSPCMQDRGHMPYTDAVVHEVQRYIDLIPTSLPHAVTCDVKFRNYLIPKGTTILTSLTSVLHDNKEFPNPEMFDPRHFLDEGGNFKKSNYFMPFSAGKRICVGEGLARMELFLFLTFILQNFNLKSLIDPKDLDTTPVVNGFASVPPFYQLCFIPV

COc1ccc(/C=C/c2cc(OC)cc(B(O)O)c2)cc1 [VMY-BC-1] showed an IC50 (CYP2C19) of 95.7 µM, an IC50 (GL261) of 4.2 µM and an IC50 (U87) of 5.88 µM. The IC50 (GBM4) was 11 µM, the IC50 (GBM8) was 9.28 µM and the IC50 (U251) was 3.98 µM. The “Maximal median lifespan extension” value (wild-type C. elegans; 1 μM) was roughly 25%, the Lifespan (wild-type C. elegans; 0.1 to 10 μM) was “dose-dependent lifespan extension” and the IC50 [1] was 35.3 µM. For the same molecule, the IC50 (NHA) was 26.5 µM, the solubility thermodynamic (Thermodynamic solubility) was 0.31 µM (≈ 0.0881 µg/mL) and the “PolyQ aggregations vs vehicle (DMSO)” value [2] was “decreased”. The “Brain level, Mean (4) ± SE” value ([3]; 0 min) was “BQL”, the “Plasma level, Mean (4) ± SE” value ([3]; 0 min) was “BQL” and the “Brain level, Mean (4) ± SE” value ([3]; 360 min) was “BQL”. For the same molecule, the “Plasma level, Mean (4) ± SE” value ([3]; 360 min) was “BQL”, the “Brain level, Mean (4) ± SE” value ([3]; 900 min) was “BQL” and the “Plasma level, Mean (4) ± SE” value ([3]; 900 min) was “BQL”. For the same molecule, the “Brain level, Mean (4) ± SE” value ([3]; 1440 min) was “BQL”, the “Plasma level, Mean (4) ± SE” value ([3]; 1440 min) was “BQL” and the “terminal elimination rate constant (lambda z)” value ([3]; Brain) was 0.0156 min⁻¹. The “terminal elimination rate constant (lambda z)” value ([3]; Plasma) was 0.0157 min⁻¹, the concentration at 30 min [3, 5] was 1560 ± 237 ng/g and the concentration at 60 min [3, 5] was 1400 ± 211 ng/g. It also gave a concentration at 180 min [3, 5] of 169 ± 58 ng/g, a concentration at 30 min [3, 6] of 578 ± 55 ng/mL and a concentration at 60 min [3, 6] of 470 ± 61 ng/mL. The concentration at 180 min [3, 6] was 60 ± 48 ng/mL, the Cmax ([3]; mouse, Brain) was 1560 ng/g and the Tmax ([3]; mouse, Brain) was 30 min. It also gave a half-life ([3]; mouse, Brain) of 44.3 min, an AUC(0-inf) ([3]; mouse, Plasma) of 865 ng·h/mL and an AUC(0-t) ([3]; mouse, Plasma, read-out: AUC(0-t) (converted)) of 803 ng·h/mL. For the same molecule, the Cmax ([3]; mouse, Plasma) was 578 ng/mL, the Tmax ([3]; mouse, Plasma) was 30 min and the half-life ([3]; mouse, Plasma) was 44 min. The IC50 (CYP2D6) was greater than 100 µM, the “Growth of MDA-MB-231 TNBC cells” value (MDA-MB-231 TNBC cells) was “significantly inhibited growth” and the AUC(0-inf) [4] was 865 ng·h/mL. For the same molecule, the “AUC(inf)” value [4] was 149000 ng·min/mL, the Cmax [4] was 578 ng/mL and 1560 ng/g and the “Concentration in brain vs plasma” value [4] was “higher concentration in brain than in plasma”. For the same molecule, the Tmax [4] was 30 min, the concentration at 30 min [4] was 578 ng/mL and 1560 ng/g and the concentration at 60 min [4] was 470 ng/mL and 1400 ng/g. For the same molecule, the concentration at 180 min [4] was 60 ng/mL and 169 ng/g, the Tmax ([4]; Tmax) was 30 min and the half-life ([4]; T½) was 44 min. For the same molecule, the “Pathways altered (Ingenuity Pathway Analysis)” value (MDA-MB-231) was “activation of apoptosis, autophagy, and DNA damage pathways, and inhibition of mTOR1, PI3K, and AKT pathways”.
